Data from the supplement of paper PMC10307832.

What was measured:
Assay in all cases: relative viability (nuclei count vs DMSO), 5 days (fraction); higher = more cells survive
XMD13-2 + Trametinib = compound: C1CC1C(=O)NC2=NNC3=C2C=CC(=C3)C4=CC(=CC=C4)C(=O)NC5CC5 [XMD13-2] + CC(=O)Nc1cccc(-n2c(=O)n(C3CC3)c(=O)c3c(Nc4ccc(I)cc4F)n(C)c(=O)c(C)c32)c1 [Trametinib] (partner 0.02 µM)
Summary of the method: (§1)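 One day after seeding in 1536-well plates, lung cancer cell lines were dosed by pin tool. Dosing was either single-drug or a fixed anchor-drug dose plus five library-drug doses (not always all listed) in √10 steps. After 5 days, nuclei were stained in one fix-and-stain step and counted on 4× images, and relative viability is the nuclei count of treated wells over that of vehicle wells, given as the median of duplicate plates.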

XMD13-2 + Linsitinib = compound: C1CC1C(=O)NC2=NNC3=C2C=CC(=C3)C4=CC(=CC=C4)C(=O)NC5CC5 [XMD13-2] + C[C@]1(O)C[C@@H](c2nc(-c3ccc4ccc(-c5ccccc5)nc4c3)c3c(N)nccn32)C1 [Linsitinib] (partner 1 µM)
Summary of the method: as §1

ALW-II-49-7 + Bortezomib = compound: Cc1ccc(C(=O)Nc2cccc(C(F)(F)F)c2)cc1Nc1cncc(C(N)=O)c1 [ALW-II-49-7] + CC(C)C[C@H](NC(=O)[C@H](Cc1ccccc1)NC(=O)c1cnccn1)B(O)O [Bortezomib] (partner 0.002 µM)
Summary of the method: as §1

Dasatinib + Phenformin = compound: Cc1nc(Nc2ncc(C(=O)Nc3c(C)cccc3Cl)s2)cc(N2CCN(CCO)CC2)n1 [Dasatinib] + N=C(N)NC(=N)NCCc1ccccc1 [Phenformin] (partner 250 µM)
Summary of the method: as §1

UMC-11
relative viability (XMD13-2 + Trametinib; first compound 0.05 µM): 0.908 | relative viability (XMD13-2 + Trametinib; first compound 0.1581 µM): 0.708 | relative viability (XMD13-2 + Trametinib; first compound 0.5 µM): 0.726 | relative viability (XMD13-2 + Trametinib; first compound 1.581 µM): 0.685 | relative viability (XMD13-2 + Trametinib; first compound 5 µM): 0.513 | relative viability (XMD13-2 + Linsitinib; first compound 0.05 µM): 1.18 | relative viability (XMD13-2 + Linsitinib; first compound 0.1581 µM): 0.942 | relative viability (XMD13-2 + Linsitinib; first compound 0.5 µM): 0.996 | relative viability (XMD13-2 + Linsitinib; first compound 1.581 µM): 1.07 | relative viability (XMD13-2 + Linsitinib; first compound 5 µM): 1.04 | relative viability (ALW-II-49-7 + Bortezomib; first compound 0.08 µM): 0.514 | relative viability (ALW-II-49-7 + Bortezomib; first compound 0.253 µM): 0.786 | relative viability (ALW-II-49-7 + Bortezomib; first compound 2.53 µM): 0.792 | relative viability (ALW-II-49-7 + Bortezomib; first compound 8 µM): 0.521 | relative viability (Dasatinib + Phenformin; first compound 0.005 µM): 0.307 | relative viability (Dasatinib + Phenformin; first compound 0.01581 µM): 0.332 | relative viability (Dasatinib + Phenformin; first compound 0.05 µM): 0.265 | relative viability (Dasatinib + Phenformin; first compound 0.1581 µM): 0.234 | relative viability (Dasatinib + Phenformin; first compound 0.5 µM): 0.171
